Experimental data published in publication PMC10451034, “Highly Efficient Photosensitizers with Molecular Vibrational Torsion for Cancer Photodynamic Therapy” (ACS Central Science, 2023).
“Also recorded” adds a separate entry of the source.

Legend:
[1] = test system: 4T1 subcutaneous solid tumor; experiment: In vivo fluorescence imaging of 4T1 tumor-bearing mice; design: species or system BALB/c mice
Excerpt: The prospective in vitro results prompted us to further explore in vivo application possibility of QTCy7-Ac, and a solid tumor model of BALB/c mice was established by inoculating 4T1 cells subcutaneously under the armpit (Figure 10a). All the BALB/c mice were purchased from Liaoning Changsheng Biotechnology Co., Ltd., and the animal experiments were approved by the Local Scientific Research Ethics Review Committee of the Animal Ethics Committee of Dalian University of Technology (ID no. // Ethics Approval No. 2021-043). When the tumor volume reached 100 mm^3, fluorescence imaging was performed at different time points after intravenous injection of QTCy7-Ac. […] To test this hypothesis, the mice were executed and dissected 2.5 h after intravenous injection, and the fluorescence imaging of the main organs and tumor was performed.
DMEM medium was replaced with saline to prevent false positive interference. […] Then the confocal fluorescence imaging was carried out and recorded with a 10 × objective lens.
Cytotoxicity was tested by the reduction of methyl thiazolyl tetrazolium to formazan by succinic acid dehydrogenase in the mitochondria of living cells (MTT assay). […] The MTT solution was carefully removed and 100 μL DMSO was added to dissolve formazan, and the absorbance of each well was measured by a multifunctional microplate reader at 570 nm and 630 nm. […]

[2] = Singlet oxygen yield in PBS with singlet oxygen sensor green (SOSG); format: physicochemical; details: 660 nm irradiation
Method: In order to further investigate the PDT ability of QTCy7-R on cancer cells, the UV–vis absorption and emission spectra and ^1O2 production capacity of QTCy7-R were tested in phosphate-buffered solution (PBS) to better mimic the cellular environment. […] Meanwhile, the fluorescence quenching of QTCy7-Ph and QTCy7-CHO also confirmed their aggregation in aqueous solution compared to the intense fluorescence emission of QTCy7-Ac. Furthermore, singlet oxygen sensor green (SOSG) was selected to investigate the ^1O2 quantum yield in PBS.
QTCy7-Ph, (e) QTCy7-Ac, (f) QTCy7-CHO, (g) TCy7 and (h) MB under 660 nm irradiation (4 mW/cm2) in PBS. (i) The relative singlet oxygen yield of different compounds in PBS.
Figure S19. (a) The cellular uptake of QTCy7-R in HepG2 cells (QTCy7-Me/QTCy7-Ph: λex = 640 […]
μm). (b) The fluorescence intensity of QTCy7-R in cell at different time. (c) The LDH release rate of cells under different treatment conditions.
Figure S20. The enlarged images of (a) QTCy7-Ac and (b) QTCy7-CHO caused cell membrane destruction at 0 min and 4 min. Yellow arrows indicate the formation of distinct bubble-like structures on cell membrane. (λex = 640 nm, λem = 650-750 nm, scale bars: 20 μm). […]

In the case of `CCOC(=O)C1=C/C(=C\C=C2/Sc3ccccc3N2CC)C(=O)C(/C=C/c2sc3ccccc3[n+]2CC)=C1` [QTCy7-Ac], the “time at which tumor region is lit up” value ([1]; after intravenous injection, 200 μM 100 μL) is reported as “around 60 min”, the “route of metabolism / organ distribution by ex vivo fluorescence” value ([1]; organs and tumor 2.5 h after intravenous injection) is reported as “metabolized primarily through the kidney; also recorded: non-negligible fluorescence signal stronger than the liver” and the “1O2 quantum yield relative to MB” value [2] is reported as 5.8 times.
